Marks after values point to notes of the source that are not given here.
Legend:
CRE1/AHK4 = molecular target: T1, CRE1/AHK4 (Arabidopsis thaliana, UniProt Q9C5U0); test: Escherichia coli cytokinin receptor activation assay (CRE1/AHK4); type: cell-based; conditions: 10^−7 M-5×10^−5 M, compared to trans-zeatin, FIG. 1
T1 construct: expressed in transfected cells; host or cells: Escherichia coli strain KMI001
Experimental: Escherichia coli strains KMI001 harbouring the plasmid pIN-III-AHK4 or pSTV28-AHK3 were grown overnight at 25° C. in M9 media enriched with 0.1% casamino acids to OD600˜1. The preculture was diluted 1:600 in 1 ml M9 medium containing 0.1% casamino acids and 1 μL stock solution of either the tested compound (10^−7 M-5×10^−5 M) or solvent control (DMSO, ethanol, methanol) were added. The cultures were further grown at 25° C. in microtiter plate, 200 μL per well. […] The cultures were centrifuged and 50 μL aliquots of the supernatant were transferred to microtiter plate containing 2 μL 50 mM 4-methyl umbelliferyl galactoside which was subsequently incubated for 1 h at 37° C. The reaction was stopped by adding 100 μL 0.2 M Na2CO3. Fluorescence was measured using a Fluoroscan Ascent (Labsystems, Finland) at the excitation and emission wavelengths of 365 and 460 nm, respectively. The OD600 of remaining culture was determined and β-galactosidase activity was calculated as nmol 4-methylumbelliferone×OD600^−1×h^−1.

maize (hybrid Amadeo) = test: Seed coating, shoot and root growth of maize (pot experiment); type: in vivo
Experimental: The drenching experiments with model plant Arabidopsis pointed to potential application of compound 12 in stimulation of plant growth and development when the roots of the plants are exposed to the chemical. […] In the year 2011 pot experiment was performed with maize (hybrid Amadeo; KWS, FAO 230). The seeds were coated with 10 and 50 μM concentration of compound 12 mixed into seed treatment agent Cruiser OSR (Syngenta; 8 L of solution per 1000 kg of seeds). Seeds coated with only Cruiser OSR were used for control variant. The seeds were dried and then sown into the soil, one plant per 15 L pot (30 plants were used per variant). The plants were harvested after app. one month in stage DC 18 (eight leafs per plant). The shoots and the roots of each plant were separated and dried. The weight of dry shoot and root biomass was recorded. […] The plants, which seeds were coated with the lower concentration of compound 12, formed 2-times higher root dry biomass and 2.75-times higher shoot dry biomass. In total this was reflected by 2.3-times increase of the total plant dry weight.

[1] = system: winter wheat variety Diadem; test: Seed coating, tillering of winter wheat (field experiment); type: in vivo; conditions: for Number of medium tillers (% of control) / Number of productive tillers (% of control) / Number of weak tillers (% of control): Olomouc, 2012
Experimental: To evaluate the effect of seed coating with compound 12 on morphological yield forming traits of winter wheat field plot experiment was performed in year 2012 on locality Olomouc, Czech Republic. Seeds of winter weat bakery variety Diadem (Selgen) were coated with 10 and 50 μM concentration of compound 12 mixed into seed treatment agent Cruiser 350FS (Syngenta; 10 L of solution per 1000 kg of seeds), seeds coated with only Cruiser 350FS were used for control variant. The seeds were dried and then sown in the sowing rate 3.500.000 seeds per hectare in 4 replications per each variant in randomized positions (each replication was 10 square meter plot). The plants were analyzed for number of productive tillers, medium tillers and weak tillers.

[2] = seed coating, lower concentration (10 μM), stage DC 18

T1 sequence (Q9C5U0 whole entry): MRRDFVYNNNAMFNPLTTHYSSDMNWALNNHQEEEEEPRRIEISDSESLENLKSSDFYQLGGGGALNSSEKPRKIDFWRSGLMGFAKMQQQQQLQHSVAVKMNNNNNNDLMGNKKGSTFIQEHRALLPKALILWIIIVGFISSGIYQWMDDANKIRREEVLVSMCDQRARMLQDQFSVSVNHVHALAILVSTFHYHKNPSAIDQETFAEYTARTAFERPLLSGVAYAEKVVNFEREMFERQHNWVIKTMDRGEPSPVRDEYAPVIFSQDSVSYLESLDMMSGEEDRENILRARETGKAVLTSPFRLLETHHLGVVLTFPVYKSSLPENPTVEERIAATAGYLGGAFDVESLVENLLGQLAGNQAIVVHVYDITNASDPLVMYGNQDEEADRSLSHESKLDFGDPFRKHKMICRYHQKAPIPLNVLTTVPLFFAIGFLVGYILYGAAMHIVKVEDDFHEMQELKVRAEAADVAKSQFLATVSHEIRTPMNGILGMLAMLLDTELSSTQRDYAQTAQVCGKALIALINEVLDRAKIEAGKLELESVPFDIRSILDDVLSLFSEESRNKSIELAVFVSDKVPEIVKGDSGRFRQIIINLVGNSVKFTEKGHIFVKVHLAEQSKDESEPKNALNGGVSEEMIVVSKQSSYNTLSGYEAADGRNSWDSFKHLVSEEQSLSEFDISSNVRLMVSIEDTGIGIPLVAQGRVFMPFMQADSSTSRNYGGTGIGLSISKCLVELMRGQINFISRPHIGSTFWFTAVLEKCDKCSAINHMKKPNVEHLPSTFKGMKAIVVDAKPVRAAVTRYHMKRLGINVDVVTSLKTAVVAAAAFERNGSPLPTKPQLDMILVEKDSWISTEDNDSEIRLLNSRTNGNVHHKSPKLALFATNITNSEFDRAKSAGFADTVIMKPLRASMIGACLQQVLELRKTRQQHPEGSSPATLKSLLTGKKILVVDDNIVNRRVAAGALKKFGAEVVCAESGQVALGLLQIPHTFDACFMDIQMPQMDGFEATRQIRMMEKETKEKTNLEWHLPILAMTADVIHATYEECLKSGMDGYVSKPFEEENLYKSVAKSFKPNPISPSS

In the case of `COc1cccc(Nc2nc(Cl)nc3c2ncn3C2CCCCO2)c1` (stereo not drawn) [compound 12, 2-chloro-6-(3-methoxyanilino)-9-(tetrahydropyran-2-yl)purine], the “ability to activate cytokinin receptor CRE1/AHK4” value (CRE1/AHK4) is reported as “very low ability to activate”, the “effect on shoot and root dry biomass” value (maize (hybrid Amadeo); seed coating 10 and 50 μM, FIG. 10) is reported as “dose-dependent stimulatory effect” and the “increase of the total plant dry weight” value (maize (hybrid Amadeo); [2]) is reported as 2.3 times. The “root dry biomass, times higher than control” value (maize (hybrid Amadeo); [2]) was 2 times, the “shoot dry biomass, times higher than control” value (maize (hybrid Amadeo); [2]) was 2.75 times and the “Number of medium tillers (% of control)” value ([1]; 10 μM) was 75.0* % of control. For the same compound, the “Number of productive tillers (% of control)” value ([1]; 10 μM) was 106.5 % of control, the “Number of weak tillers (% of control)” value ([1]; 10 μM) was 102.2 % of control and the “Number of medium tillers (% of control)” value ([1]; 50 μM) was 78.1* % of control. The “Number of productive tillers (% of control)” value ([1]; 50 μM) was 124.2** % of control, the “Number of weak tillers (% of control)” value ([1]; 50 μM) was 80.4 % of control and the “number of productive tillers compared to untreated control” value ([1]; 10 and 50 μM) was 106-124%.

— patent US10662194B2, “Substituted 6-anilino-9-heterocyclylpurine derivatives for inhibition of plant stress” (UNIVERZITA PALACKEHO V OLOMOUCI, priority 2014, dated 2020)
